In US9499493B2, “2,4-pyrimidinediamine compounds and their uses” (Rigel Pharmaceuticals, Inc., priority 2002, dated 2016):

Assays:
[1] = test system: cultured human mast cells (CHMC); assay: CHMC low cell density ionomycin activation: tryptase assay; type: cell-based
[2] = test system: cultured human mast cells (CHMC); assay: CHMC low cell density IgE activation: tryptase assay; type: cell-based; conditions: anti-IgE
In short: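 Low-density CHMC assay: donor-adjusted 1000-1500 cells/well, MT buffer, 1 hr 37° C preincubation; anti-IgE stimulus 30 min 37° C versus MT-only controls; supernatant tryptase by substrate, 30 min RT.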

Row | SMILES | IC50 [1] | IC50 [2]
1 | Cc1nc(COc2cccc(Nc3ncc(F)c(Nc4ccc(OC(C)C)cc4)n3)c2)no1 [R945129, 5-Fluoro-N4-(4-isopropoxyphenyl)-N2-[3-(5-methyl-1,2,4-oxadiazol-3-yl)methyleneoxyphenyl]-2,4-pyrimidinediamine] | > 10 µM | 1 µM
2 | Cc1noc(COc2cccc(Nc3nc(Nc4cccc(O)c4)ncc3F)c2)n1 [R945130, 5-Fluoro-N2-(3-hydroxyphenyl)-N4-[3-(3-methyl-1,2,4-oxadiazol-5-yl)methyleneoxyphenyl]-2,4-pyrimidinediamine] | > 10 µM | 1.87 µM
3 | COC(=O)c1cc2cc(Nc3nc(Nc4cccc(OCc5noc(C)n5)c4)ncc3F)ccc2o1 [R945131, 5-Fluoro-N4-(2-methoxycarbonylbenzofuran-5-yl)-N2-[3-(5-methyl-1,2,4-oxadiazol-3-yl)methyleneoxyphenyl]-2,4-pyrimidinediamine] | > 10 µM | 0.77 µM
4 | Cc1nc(COc2cccc(Nc3nc(Nc4ccc(OCC(N)=O)cc4)ncc3F)c2)no1 [R945133, N2-[4-(Aminocarbonylmethoxy)phenyl]-5-fluoro-N4-[3-(5-methyl-1,2,4-oxadiazol-3-yl)methyleneoxyphenyl]-2,4-pyrimidinediamine] | > 10 µM | 1.06 µM
5 | Cc1nc(COc2cccc(Nc3ncc(F)c(Nc4ccc5oc(C(=O)O)cc5c4)n3)c2)no1 [R945134, N4-(2-Carboxybenzofuran-5-yl)-5-fluoro-N2-[3-(5-methyl-1,2,4-oxadiazol-3-yl)methyleneoxyphenyl]-2,4-pyrimidinediamine] | > 10 µM | > 10 µM
6 | Cc1nc(COc2cccc(Nc3nc(Nc4ccc5c(c4)OCCO5)ncc3F)c2)no1 [R945137, N2-(3,4-Ethylenedioxyphenyl)-5-fluoro-N4-[3-(5-methyl-1,2,4-oxadiazol-3-yl)methyleneoxyphenyl]-2,4-pyrimidinediamine] | > 10 µM | 1.65 µM
7 | COC(=O)COc1cccc(Nc2ncc(F)c(Nc3cc(C)c(O)c(C)c3)n2)c1 [R945139, N4-(3,5-Dimethyl-4-hydroxyphenyl)-5-fluoro-N2-(3-methoxycarbonylmethyleneoxyphenyl)-2,4-pyrimidinediamine] | > 10 µM | 1.02 µM
8 | COC(=O)COc1cccc(Nc2ncc(F)c(Nc3cc(C)c(O)c(Cl)c3)n2)c1 [R945148, N4-(3-Chloro-4-hydroxy-5-methylphenyl)-5-fluoro-N2-(3-methoxycarbonylmethyleneoxyphenyl)-2,4-pyrimidinediamine] | > 10 µM | 0.307 µM
9 | Cc1cc(Nc2nc(Nc3cccc(OCC(=O)N4CCNCC4)c3)ncc2F)cc(Cl)c1O [R945149, N4-(3-Chloro-4-hydroxy-5-methylphenyl)-5-fluoro-N2-[3-(N-piperazino)carbonylmethyleneoxyphenyl]-2,4-pyrimidinediamine] | > 10 µM | 0.391 µM

These reach a lower IC50 [1]. Values come first.

Row | IC50 [1] | IC50 [2] | SMILES
10 | 8.77 µM | 0.571 µM | Cc1nc(COc2cccc(Nc3nc(Nc4cccc(O)c4)ncc3F)c2)no1 [R945132, 5-Fluoro-N2-(3-hydroxyphenyl)-N4-[3-(5-methyl-1,2,4-oxadiazol-3-yl)methyleneoxyphenyl]-2,4-pyrimidinediamine]
11 | 8.25 µM | 0.986 µM | Cc1nc(COc2cccc(Nc3ncc(F)c(Nc4ccc5oc(C(N)=O)cc5c4)n3)c2)no1 [R945135, N4-(2-Aminocarbonylbenzofuran-5-yl)-5-fluoro-N2-[3-(5-methyl-1,2,4-oxadiazol-3-yl)methyleneoxyphenyl]-2,4-pyrimidinediamine]
12 | 6.73 µM | 1.06 µM | Cc1nc(COc2cccc(Nc3nc(Nc4ccc(OC(C)C)cc4)ncc3F)c2)no1 [R945138, 5-Fluoro-N2-(4-isopropoxyphenyl)-N4-[3-(5-methyl-1,2,4-oxadiazol-3-yl)methyleneoxyphenyl]-2,4-pyrimidinediamine]
13 | 6.56 µM | 0.688 µM | COC(=O)COc1cccc(Nc2ncc(F)c(Nc3cc(C)c(OC)c(C)c3)n2)c1 [R945153, N4-(3,5-Dimethyl-4-methoxyphenyl)-5-fluoro-N2-(3-methoxycarbonylmethyleneoxyphenyl)-2,4-pyrimidinediamine]
